Test results taken from patent US20110086891A1, “Solid Forms of 2-(2,4-Difluorophenyl)-6-(1-(2,6-Difluorophenyl)Ureido)Nicotinamide)” (Vertex Pharmaceuticals Incorporated, priority 2009, published 2011).
Values after ≈ are worked out from the molar mass of the structure shown. “Also recorded” adds a separate entry of the source.

Assays:
Format in all cases: physicochemical
[1] = Apparent solubilities of Form A at room temperature and at 60° C.; conditions: thermodynamic from solid
[2] = Stability studies at 40° C./75% RH (physical and chemical stability, XRPD)
Description: In some embodiments, less than 25% of the solid form of Compound I decomposes, in some embodiments, less than about 20%, less than about 15%, less than about 10%, less than about 5%, less than about 3%, less than about 1%, less than about 0.5% of the form of Compound I decomposes under the conditions specified. In some embodiments, no detectable amount of the solid form of Compound I decomposes. […] In some embodiments, less than 25% of the solid form of Compound I changes into one or more different physical forms when subjected to specified conditions. In some embodiments, less than about 20%, less than about 15%, less than about 10%, less than about 5%, less than about 3%, less than about 1%, less than about 0.5% of the solid form of Compound I changes into one or more different physical forms of Compound I when subjected to specified conditions. In some embodiments, no detectable amount of the solid form of Compound I changes into one or more physically different solid forms of Compound I.

[3] = Solid form conversion on heating, cooling, storage, slurrying or addition of water (XRPD, VT-XRD); conditions: for form conversion upon slurrying in a non-solvate forming solvent: slurry, MeOH and water (MeOH:H2O 1:1)
Protocol: Another form, Form P, was detected during the MeOH re-crystallization step used to prepare Form C from Form A. Form P is characterized below. When variable-temperature X-Ray diffraction (VT-XRD) of Form P was carried out in 5° C. increments from 25 to 50° C. and the resulting solid was cooled back to ambient conditions, it was observed that Form P transitions to Form A at approximately 40° C. and returns to Form P upon cooling back to room temperature. […] Both Form A and Form P are MeOH solvates.
1. Bruker D8 Discover with HighStar array detector with an accelerator voltage of 40 kV and current of 35 mA over a 120 second acquisition time. Each sample was prepared in a nickel sample holder and the subsequent pattern collected over two frames with a 2θ range of 4-41°. Variable temperature X-Ray diffraction (VT-XRD) was accomplished with a DHS900 Anton Paar heating stage with a TCU150 controller with a heating rate between steps of 10° C./min and an equilibration time of 5 minutes at temperature. 2. Siemens D5000 diffractometer using CuKα radiation (40 kV, 40 mA), θ-θ goniometer, automatic divergence and receiving slits, a graphite secondary monochromator and a scintillation counter. The data were collected over an angular 2 theta range of 2° to 42° in continuous scan mode using a step size of 0.02° and a step time of 1 second. Samples were run under ambient conditions and prepared as flat plate specimens using powder as received without grinding. Approximately 1-2 mg of the sample was slightly pressed on a glass slide to obtain a flat surface. Samples run under non-ambient conditions were mounted on a silicon wafer with heat conducting compounds. The sample was then heated to the appropriate temperature at ca. 20° C./min and subsequently held isothermally for ca 1 minute before data collection was initiated. 3. Bruker AXS C2 GADDS Diffractometer using CuKα radiation (40 kV, 40 mA), automated XYZ stage, laser video microscope for auto-sample positioning and a HiStar 2-dimensional area detector. X-Ray optics consists of a single Gobel multilayer mirror coupled with a pinhole collimator of 0.3 mm. Beam divergence, was approximately 4 mm. A θ-θ continuos scan mode was employed with a sample to detector distance of 20 cm which gives an effective 2θ range of 3.2-29.8°. A typical exposure time of a sample in this system would be 120 s. Samples were run under ambient conditions and prepared as flat plate specimens using powder as received without grinding. Approximately 25-50 mg of the sample was gently packed into 12 mm diameter, 0.5 mm deep cavities cut into polished, zero-background (510) silicon wafers (from The Gem Dugout). All specimens were run both stationary and rotated on their own plate during analysis. A further specimen was run using silicon powder as internal standard to correct for any peak displacement. Diffraction data were reported using Cu Kαl (l=1.5406 Å), after the Kαl component had been stripped using EVA, the powder patterns were indexed by the ITO method using WIN-INDEX and the raw lattice constants refined using WIN-METRIC. 4. Shimadzu XRD-6000 X-Ray powder diffractometer using CuKα radiation (40 kV, 40 mA) equipped with a fine-focus X-Ray tube. Divergence and Scattering slids were set at 1° and the receiving slit was set at 0.15 mm. A NaI scintillation detector detected diffracted irradiation. A θ-2θ continuous scan at 3°/min (0.4 sec/0.02° step) from 2.5° to 40° was used. A silicon standard was analyzed each day to check the instrument alignment. Each sample was prepared for analysis by pressing it onto the sample holder. 5. Inel XRG-3000 X-Ray powder diffractometer using CuKα radiation (40 kV, 30 mA). This was equipped with a curved position-sensitive detector. Data was collected in real time over a 2 θ range of 120° at a resolution of 0.03°. Samples were packed in an aluminum holder with a silicon insert and analyzed. A silicon standard was analyzed each day to check for instrument alignment. […]

[4] = Gravimetric vapour sorption (GVS) studies
Protocol: All samples were run on a Hiden IGASorp moisture sorption analyzer running CFRSorp software. Sample sizes were typically 10 mg. A moisture absorption-desorption isotherm was performed as outlined below in Table X (2 scans giving 1 complete cycle). All samples were loaded/unloaded at typical room humidity and temperature (40% RH, 25° C.). All samples were analysed by XRPD post GVS analysis. The standard isotherm was performed at 25° C. at 10% RH intervals over a 0-90% RH range.

[5] = Relative stability studies: slurrying 1:1 mixtures of forms in 3:1 water:ethanol at various temperatures; conditions: slurry in 3:1 water:ethanol
Protocol: 1:1 mixtures of Form C and form G of Compound I were slurried in 3:1 water:ethanol at a range of temperatures to determine the relative stability at different temperatures. 5 mg of Form C was mixed with 5 mg of Form G in a glass vial. 1.0 ml of 3:1 water:ethanol was added and the resulting slurry was stirred at 5° C. for 10 days. The resulting solid was isolated by filtration and analysed by XRPD (see FIG. 17).
(§1) The above procedure was repeated at 25, 50 and 80° C.
1:1 mixtures of Form C and Form F were slurried in 3:1 water:ethanol at a range of temperatures to determine the relative stability at different temperatures. […] Ethanol was used in addition to water in order to increase the amount of Compound I in solution and so increase the rate of conversion between forms. Ethanol was chosen as no ethanol solvate of Compound I was known. 10 mg of Form C was mixed with 10 mg of Form F in a glass vial. 2.0 ml of 3:1 water:ethanol was added and the resulting slurry was stirred at 5° C. for 24 hours. Solid was isolated by filtration and analysed by XRPD.
as §1
1:1 mixtures of Form F and Form G were slurried in 3:1 water:ethanol at a range of temperatures to determine the relative stability at different temperatures. 10 mg of Form F was mixed with 10 mg of Form G in a glass vial. 2.0 ml of 3:1 water:ethanol was added and the resulting slurry was stirred at 5° C. for 24 hours. The resulting solid was isolated by filtration and analysed by XRPD. The above procedure was repeated at 25, 50 and 70° C. 70° C. was used instead of 80° C. in an attempt to reduce degradation.

[6] = Solubility analysis (in water); conditions: 25° C.
Protocol: This was measured by suspending enough Compound I in 0.25 mL of solvent (water) to give a maximum final concentration of ≧10 mg/ml of the parent free form of the compound. The suspension was equilibrated at 25° C. for 24 hrs followed by a pH check and filtration through a glass fibre C96 well plate. The filtrate was then diluted down by a factor of 101. Quantitation was by HPLC (Table XI) with reference to a standard, diluted and undiluted tests were injected. The solubility was calculated by integration of the peak area found at the same retention time as the peak maximum in the standard injection. If there is sufficient solid in the filter plate the XRPD is normally checked for phase changes, hydrate formation, amorphization, crystallization, etc.

## NC(=O)c1ccc(N(C(N)=O)c2c(F)cccc2F)nc1-c1ccc(F)cc1F [Form A, 2-(2,4-difluorophenyl)-6-(1-(2,6-difluorophenyl)ureido)nicotinamide•MeOH]
[1]; organic solvent or mixture, 60° C., 1-Butanol
  solubility: 2900 µg/mL (≈ 7.17 mM)
[1]; organic solvent or mixture, 60° C., Butyl Acetate
  solubility: 1900 µg/mL (≈ 4.7 mM)
[1]; organic solvent or mixture, room temperature, 1-Butanol
  solubility: 2000 µg/mL (≈ 4.95 mM)
[1]; organic solvent or mixture, room temperature, 2-Butanone
  solubility: 3400 µg/mL (≈ 8.41 mM)
[1]; organic solvent or mixture, room temperature, 2-Propanol
  solubility: < 800 µg/mL
[1]; organic solvent or mixture, room temperature, 2-Propyl Acetate
  solubility: 2900 µg/mL (≈ 7.17 mM)
[1]; organic solvent or mixture, room temperature, Acetone
  solubility: 6400 µg/mL (≈ 15.8 mM)
[1]; organic solvent or mixture, room temperature, Acetonitrile
  solubility: 3800 µg/mL (≈ 9.4 mM)
[1]; organic solvent or mixture, room temperature, Dimethylformamide
  solubility: > 100000 µg/mL
[1]; organic solvent or mixture, room temperature, Ethanol
  solubility: 5700 µg/mL (≈ 14.1 mM)
[1]; organic solvent or mixture, room temperature, Ethyl Acetate
  solubility: 7200 µg/mL (≈ 17.8 mM)
[1]; organic solvent or mixture, room temperature, Heptane
  solubility: < 900 µg/mL
[1]; organic solvent or mixture, room temperature, Methanol
  solubility: 5700 µg/mL (≈ 14.1 mM)
[1]; organic solvent or mixture, room temperature, Methylene Chloride
  solubility: < 800 µg/mL
[1]; organic solvent or mixture, room temperature, Tetrahydrofuran
  solubility: 1500 µg/mL (≈ 3.71 mM)
[1]; room temperature, Water
  solubility: < 900 µg/mL
[2]
  results of stability studies as seen by XRPD (before and after spectra): before and after spectra illustrate formation of Form C
[2]; 40° C./75% RH
  form conversion upon storage: become Form C described herein after one to four weeks; also recorded: convert to Form C upon storage at 40° C./75% RH for one week or longer
[3]; cooling
  form conversion on cooling: convert to Form P upon cooling below about 50 °C
[3]
  form conversion on heating: become crystalline Form C upon heating to 100 °C
  form conversion upon slurrying in a non-solvate forming solvent: become crystalline Form C

## NC(=O)c1ccc(N(C(N)=O)c2c(F)cccc2F)nc1-c1ccc(F)cc1F [Form F, 2-(2,4-difluorophenyl)-6-(1-(2,6-difluorophenyl)ureido)nicotinamide]
[4]; 40% RH
  total weight gain in water at 40% RH: 1%
[4]
  weight gain in water at 90% RH: 1.1%
[5]
  fate of the form on slurrying: At 5 and 25° C., Form F was observed to convert to Form G; also recorded: not recovered after slurrying at any of the four temperatures
[2]; 40° C./75% RH
  time remaining chemically stable: at least 2 weeks
  time remaining in substantially the same physical form: at least 2 weeks
[6]
  solubility in water: at least 0.021 mg/mL

## NC(=O)c1ccc(N(C(N)=O)c2c(F)cccc2F)nc1-c1ccc(F)cc1F [Form G, 2-(2,4-difluorophenyl)-6-(1-(2,6-difluorophenyl)ureido)nicotinamide]
[4]
  hygroscopicity: highly hygroscopic
  weight gain in water at 90% RH: more than 8%
[4]; 10% RH
  total water gain (in weight) at 10% RH: 1%
[5]
  relative stability between forms: more stable than Form F at 5 °C
[2]
  results of stability studies as seen by XRPD (before and after spectra): before and after spectra are similar
[2]; 40° C./75% RH
  time remaining chemically stable: at least two
  time remaining in substantially the same physical form: at least two
[6]
  solubility in water: at least 0.020 mg/mL
[3]; 20° C. to 50° C., 2, 5 and 24 hours after addition of water
  form conversion after the addition of water: convert into Form Q
[3]
  form conversion on heating: converted into Form F on heating above about 130 °C

## NC(=O)c1ccc(N(C(N)=O)c2c(F)cccc2F)nc1-c1ccc(F)cc1F [Form P, 2-(2,4-difluorophenyl)-6-(1-(2,6-difluorophenyl)ureido)nicotinamide•MeOH]
[2]
  results of stability studies as seen by XRPD (before and after spectra): before and after spectra illustrate formation of Form C
[3]; VT-XRD, 5° C. increments from 25 to 50° C.
  temperature of transition of Form P to Form A: approximately 40 °C
[3]
  form conversion on heating: convert to Form A upon heating to 50 °C and then to Form C upon heating to 100 °C
  form conversion upon slurrying in a non-solvate forming solvent: convert to Form C
[3]; room temperature, VT-XRD
  relative stability of Form A and Form P: the more stable of the two at room temperature
